Earlier results on one molecule are cited in patent publication US20030084473A1, “Non-transgenic herbicide resistant plants” (priority 2001, published 2003).

The series addresses wild-type EPSPS from E. coli (Escherichia coli, UniProt P0A6D3). To be noted: read-out: apparent Km for PEP.

wild-type EPSPS from E. coli, sequence (P0A6D3 whole entry): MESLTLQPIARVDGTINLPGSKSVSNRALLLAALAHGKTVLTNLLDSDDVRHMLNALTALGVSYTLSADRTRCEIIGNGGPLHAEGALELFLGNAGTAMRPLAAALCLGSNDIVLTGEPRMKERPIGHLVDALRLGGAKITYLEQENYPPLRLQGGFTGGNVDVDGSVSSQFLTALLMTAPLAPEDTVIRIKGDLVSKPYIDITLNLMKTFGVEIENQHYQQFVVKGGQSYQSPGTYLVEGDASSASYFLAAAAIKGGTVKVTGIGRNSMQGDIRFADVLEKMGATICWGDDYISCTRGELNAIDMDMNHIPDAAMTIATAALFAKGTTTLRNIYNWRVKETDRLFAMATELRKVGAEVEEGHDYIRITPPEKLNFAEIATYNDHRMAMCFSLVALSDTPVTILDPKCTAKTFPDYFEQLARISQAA

Broadly, the Km is the concentration of substrate that gives half-maximal velocity. Take `C=C(OP(=O)(O)O)C(=O)O` [PEP, phosphoenolpyruvic acid]: the Km was 10 µM.
